From ChEMBL document CHEMBL5143590, “Dihydropyrimidinone imidazoles as unique structural antibacterial agents for drug-resistant gram-negative pathogens” (Eur J Med Chem, 2022)
Values after ≈ are worked out from the molar mass of the structure shown. Active and inactive are the calls of the source. No cut-off for these calls is given here.

Columns and labels:
Acinetobacter baumannii [1] = experiment: Antibacterial activity against Acinetobacter baumannii assessed as inhibition of bacterial growth by two fold serial dilution method; assay type: functional
Escherichia coli [2] = experiment: Antibacterial activity against Escherichia coli 25922 assessed as inhibition of bacterial growth by two fold serial dilution method; assay type: functional
Enterococcus faecalis = experiment: Antibacterial activity against Enterococcus faecalis assessed as inhibition of bacterial growth by two fold serial dilution method; assay type: functional
Acinetobacter baumannii [3] = experiment: Bactericidal activity against Acinetobacter baumannii assessed as fold increase in MIC value after 16 passages by two fold serial dilution method; assay type: functional
Staphylococcus aureus [4] = experiment: Antibacterial activity against Staphylococcus aureus 25923 assessed as inhibition of bacterial growth by two fold serial dilution method; assay type: functional
Staphylococcus aureus [5] = experiment: Antibacterial activity against methicillin-resistant Staphylococcus aureus N315 assessed as inhibition of bacterial growth by two fold serial dilution method; assay type: functional
Pseudomonas aeruginosa [6] = experiment: Antibacterial activity against Pseudomonas aeruginosa 27853 assessed as inhibition of bacterial growth by two fold serial dilution method; assay type: functional
Pseudomonas aeruginosa [7] = experiment: Antibacterial activity against Pseudomonas aeruginosa assessed as inhibition of bacterial growth by two fold serial dilution method; assay type: functional
Escherichia coli [8] = experiment: Antibacterial activity against Escherichia coli assessed as inhibition of bacterial growth by two fold serial dilution method; assay type: functional
Klebsiella pneumoniae [9] = experiment: Antibacterial activity against Klebsiella pneumoniae assessed as inhibition of bacterial growth by two fold serial dilution method; assay type: functional
Staphylococcus aureus [10] = experiment: Antibacterial activity against Staphylococcus aureus 29213 assessed as inhibition of bacterial growth by two fold serial dilution method; assay type: functional
Klebsiella pneumoniae [11] = experiment: Bactericidal activity against Klebsiella pneumoniae assessed as fold increase in MIC value after 16 passages by two fold serial dilution method; assay type: functional
Staphylococcus aureus [12] = experiment: Antibacterial activity against Staphylococcus aureus assessed as inhibition of bacterial growth by two fold serial dilution method; assay type: functional
Klebsiella pneumoniae [13] = experiment: Anti- biofilm activity against Klebsiella pneumoniae assessed as inhibition of biofilm formation at 2 times MIC relative to control; assay type: functional; parameters: scale not given: the % may be the effect or the level left
Cell membrane [14] = experiment: Induction of inner membrane damage in Acinetobacter baumannii assessed as disruption of membrane integrity at 0.25 to 2 ug/ml by propidium iodide staining based fluorescence analysis; assay type: subcellular; conditions: dose 0.25-2 µg/ml
[15] = Cytotoxicity against human HepG2 cells assessed as viable cells upto 40 ug/ml relative to control; assay type: toxicity, cell-based; conditions: up to 40 µg/mL, read-out: Activity
Cell membrane [16] = experiment: Induction of inner membrane damage in Klebsiella pneumoniae assessed as disruption of membrane integrity at 0.25 to 2 ug/ml by propidium iodide staining based fluorescence analysis; assay type: subcellular; conditions: dose 0.25-2 µg/ml
Acinetobacter baumannii [17] = experiment: Anti- biofilm activity against Acinetobacter baumannii assessed as biofilm viability at 2 times MIC relative to control; assay type: functional
Acinetobacter baumannii [18] = experiment: Anti- biofilm activity against Acinetobacter baumannii assessed as biofilm viability at 1 time MIC relative to control; assay type: functional
Acinetobacter baumannii [19] = experiment: Anti- biofilm activity against Acinetobacter baumannii assessed as biofilm viability at 4 times MIC relative to control; assay type: functional
Klebsiella pneumoniae [20] = experiment: Antioxidant activity in Klebsiella pneumoniae assessed as loss of GSH activity at 1 to 8 times MIC; assay type: functional, organism-based
Cell membrane [21] = experiment: Induction of cytoplasmic membrane depolarization in Acinetobacter baumannii assessed as increase in fluorescence intensity at 0.5 to 4 times MIC by DiSC35 dye based fluorescence method; conditions: DDE = dose-dependent effect
Klebsiella pneumoniae [22] = experiment: Anti- biofilm activity against Klebsiella pneumoniae assessed as inhibition of biofilm formation at 6 times MIC relative to control; assay type: functional; parameters: scale not given: the % may be the effect or the level left
Klebsiella pneumoniae [23] = experiment: Bactericidal activity against Klebsiella pneumoniae assessed as reduction in bacterial growth at MIC and measured within 2 hrs by time-kill kinetic assay; assay type: functional
Klebsiella pneumoniae [24] = experiment: Anti- biofilm activity against Klebsiella pneumoniae assessed as inhibition of biofilm formation at 4 times MIC relative to control; assay type: functional; parameters: scale not given: the % may be the effect or the level left
Acinetobacter baumannii [25] = experiment: Bactericidal activity against Acinetobacter baumannii assessed as reduction in bacterial growth at MIC and measured within 2 hrs by time-kill kinetic assay; assay type: functional
Acinetobacter baumannii [26] = experiment: Anti- biofilm activity against Acinetobacter baumannii assessed as biofilm viability at 6 times MIC relative to control; assay type: functional
Klebsiella pneumoniae [27] = experiment: Induction of ROS generation in Klebsiella pneumoniae assessed as ROS accumulation at 1 to 8 times MIC by DCFH-DA dye based fluorescence assay; assay type: functional, organism-based; conditions: DDE = dose-dependent effect
Acinetobacter baumannii [28] = experiment: Antioxidant activity in Acinetobacter baumannii assessed as loss of GSH activity at 1 to 8 times MIC; assay type: functional, organism-based
Klebsiella pneumoniae [29] = experiment: Anti- biofilm activity against Klebsiella pneumoniae assessed as biofilm viability at 2 times MIC relative to control; assay type: functional
Klebsiella pneumoniae [30] = experiment: Anti- biofilm activity against Klebsiella pneumoniae assessed as biofilm viability at 4 times MIC relative to control; assay type: functional
Klebsiella pneumoniae [31] = experiment: Induction of morphological changes in Klebsiella pneumoniae assessed as cytoplasmic sparsity at 2 times MIC for 4 hrs by TEM analysis; assay type: functional, organism-based
Cell membrane [32] = experiment: Induction of outer membrane permeabilization in Klebsiella pneumoniae assessed as increase in NPN fluorescence at 4 times MIC by NPN-dye based fluorescence analysis; assay type: subcellular
Klebsiella pneumoniae [33] = experiment: Anti- biofilm activity against Klebsiella pneumoniae assessed as biofilm viability at 1 time MIC relative to control; assay type: functional
Acinetobacter baumannii [34] = experiment: Anti- biofilm activity against Acinetobacter baumannii assessed as inhibition of biofilm formation at 1 time MIC relative to control; assay type: functional; parameters: scale not given: the % may be the effect or the level left
Erythrocyte = experiment: Hemolytic activity in human RBC assessed as hemolysis at 512 ug/ml; assay type: toxicity, cell-based; conditions: dose 512 µg/ml
Klebsiella pneumoniae [35] = experiment: Induction of morphological changes in Klebsiella pneumoniae assessed as cell lysis at 2 times MIC for 4 hrs by TEM analysis; assay type: functional, organism-based
[36] = Cytotoxicity against human endothelial cells assessed as viable cells upto 40 ug/ml relative to control; assay type: toxicity, cell-based, Endothelial cell; conditions: up to 40 µg/mL, read-out: Activity
Klebsiella pneumoniae [37] = experiment: Bactericidal activity against Klebsiella pneumoniae assessed as reduction in bacterial growth at 4 times MIC and measured within 2 hrs by time-kill kinetic assay relative to control; assay type: functional; parameters: scale not given: the % may be the effect or the level left
Klebsiella pneumoniae [38] = experiment: Induction of morphological changes in Klebsiella pneumoniae assessed as appearance of broken cell membrane at 2 times MIC for 4 hrs by SEM analysis; assay type: functional, organism-based
Acinetobacter baumannii [39] = experiment: Anti- biofilm activity against Acinetobacter baumannii assessed as inhibition of biofilm formation at 6 times MIC relative to control; assay type: functional; parameters: scale not given: the % may be the effect or the level left
Cell membrane [40] = experiment: Induction of cytoplasmic membrane depolarization in Acinetobacter baumannii assessed as increase in fluorescence intensity at 0.5 to 4 times MIC and measured up to 100 mins by DiSC35 dye based fluorescence method; assay type: subcellular; conditions: TDE = time-dependent effect
Klebsiella pneumoniae [41] = experiment: Induction of morphological changes in Klebsiella pneumoniae assessed as shrunken cell membrane at 2 times MIC for 4 hrs by SEM analysis; assay type: functional, organism-based
Klebsiella pneumoniae [42] = experiment: Anti- biofilm activity against Klebsiella pneumoniae assessed as biofilm viability at 6 times MIC relative to control; assay type: functional
Cell membrane [43] = experiment: Induction of cytoplasmic membrane depolarization in Klebsiella pneumoniae assessed as increase in fluorescence intensity at 0.5 to 4 times MIC by DiSC35 dye based fluorescence method; conditions: DDE = dose-dependent effect
Cell membrane [44] = experiment: Induction of outer membrane permeabilization in Acinetobacter baumannii assessed as increase in fluorescence intensity at 4 times MIC by NPN-dye based fluorescence analysis; assay type: subcellular
Klebsiella pneumoniae [45] = experiment: Induction of morphological changes in Klebsiella pneumoniae assessed as membrane rupture at 2 times MIC for 4 hrs by TEM analysis; assay type: functional, organism-based
Acinetobacter baumannii [46] = experiment: Induction of ROS generation in Acinetobacter baumannii assessed as ROS accumulation at 1 to 8 times MIC by DCFH-DA dye based fluorescence assay; assay type: functional, organism-based; conditions: DDE = dose-dependent effect
Acinetobacter baumannii [47] = experiment: Bactericidal activity against Acinetobacter baumannii assessed as reduction in bacterial growth at 4 times MIC and measured within 2 hrs by time-kill kinetic assay relative to control; assay type: functional; parameters: scale not given: the % may be the effect or the level left
Calf thymus DNA [48] = experiment: Binding affinity to calf thymus DNA assessed as assessed as compound-DNA complex formation by measuring red shift by UV-visible absorption spectrophotometric method; assay type: nucleic-acid assay; conditions: Bos taurus
Acinetobacter baumannii [49] = experiment: Anti- biofilm activity against Acinetobacter baumannii assessed as inhibition of biofilm formation at 4 times MIC relative to control; assay type: functional; parameters: scale not given: the % may be the effect or the level left
Calf thymus DNA [50] = experiment: Binding affinity to calf thymus DNA assessed as reduction in fluorescence intensity of DNA-acridine orange complex by acridine orange dye based fluorescence analysis; assay type: nucleic-acid assay; conditions: Bos taurus
Cell membrane [51] = experiment: Induction of cytoplasmic membrane depolarization in Klebsiella pneumoniae assessed as increase in fluorescence intensity at 0.5 to 4 times MIC and measured up to 100 mins by DiSC35 dye based fluorescence method; assay type: subcellular; conditions: TDE = time-dependent effect
Acinetobacter baumannii [52] = experiment: Anti- biofilm activity against Acinetobacter baumannii assessed as inhibition of biofilm formation at 2 times MIC relative to control; assay type: functional; parameters: scale not given: the % may be the effect or the level left
Klebsiella pneumoniae [53] = experiment: Anti- biofilm activity against Klebsiella pneumoniae assessed as inhibition of biofilm formation at 1 time MIC relative to control; assay type: functional; parameters: scale not given: the % may be the effect or the level left

## CCn1cc(C(=O)O)c(=O)c2cc(F)c(N3CCNCC3)cc21 [NORFLOXACIN]
Acinetobacter baumannii [1]
  MIC: 8 µg/mL (≈ 25.1 µM)
Escherichia coli [2]
  MIC: 8 µg/mL (≈ 25.1 µM)
Enterococcus faecalis
  MIC: 4 µg/mL (≈ 12.5 µM)
Acinetobacter baumannii [3]
  fold change (FC): 32
Staphylococcus aureus [4]
  MIC: 1 µg/mL (≈ 3.13 µM)
Staphylococcus aureus [5]
  MIC: 16 µg/mL (≈ 50.1 µM)
Pseudomonas aeruginosa [6]
  MIC: 0.5 µg/mL (≈ 1.57 µM)
Pseudomonas aeruginosa [7]
  MIC: 2 µg/mL (≈ 6.26 µM)
Escherichia coli [8]
  MIC: 16 µg/mL (≈ 50.1 µM)
Klebsiella pneumoniae [9]
  MIC: 4 µg/mL (≈ 12.5 µM)
Staphylococcus aureus [10]
  MIC: 2 µg/mL (≈ 6.26 µM)
Klebsiella pneumoniae [11]
  fold change (FC): 32
Staphylococcus aureus [12]
  MIC: 2 µg/mL (≈ 6.26 µM)

## CCCCc1nc(Cl)c(C2NC(=O)NC(CN(c3cc(C)no3)S(=O)(=O)c3ccc(N)cc3)=C2C(=O)OCC)[nH]1 (stereo unspecified)
Klebsiella pneumoniae [13]
  Activity: 66%
Cell membrane [14]
  Activity: Active
[15]
  viability: > 50%
Acinetobacter baumannii [1]
  MIC: 0.5 µg/mL (≈ 0.844 µM)
Cell membrane [16]
  Activity: Active
Escherichia coli [2]
  MIC: 1 µg/mL (≈ 1.69 µM)
Acinetobacter baumannii [17]
  Activity: 83%
Enterococcus faecalis
  MIC: 16 µg/mL (≈ 27 µM)
Acinetobacter baumannii [18]
  Activity: 87%
Acinetobacter baumannii [19]
  Activity: 70%
Klebsiella pneumoniae [20]
  Activity: Active
Cell membrane [21]
  Activity: Dde
Staphylococcus aureus [4]
  MIC: 8 µg/mL (≈ 13.5 µM)
Klebsiella pneumoniae [22]
  Activity: 89%
Klebsiella pneumoniae [23]
  Activity: 2.5 log10CFU/ml
Klebsiella pneumoniae [24]
  Activity: 82%
Acinetobacter baumannii [25]
  Activity: 2.4 log10CFU/ml
Acinetobacter baumannii [26]
  Activity: 41%
Klebsiella pneumoniae [27]
  Activity: Dde
Acinetobacter baumannii [28]
  Activity: Active
Klebsiella pneumoniae [29]
  Activity: 76%
Staphylococcus aureus [5]
  MIC: 4 µg/mL (≈ 6.76 µM)
Klebsiella pneumoniae [30]
  Activity: 62%
Pseudomonas aeruginosa [6]
  MIC: 4 µg/mL (≈ 6.76 µM)
Klebsiella pneumoniae [31]
  Activity: Active
Cell membrane [32]
  Activity: Active
Pseudomonas aeruginosa [7]
  MIC: 4 µg/mL (≈ 6.76 µM)
Klebsiella pneumoniae [33]
  Activity: 85%
Acinetobacter baumannii [34]
  Activity: 21%
Erythrocyte
  Activity: Non-Toxic
Klebsiella pneumoniae [35]
  Activity: Active
Escherichia coli [8]
  MIC: 2 µg/mL (≈ 3.38 µM)
[36]
  viability: > 50%
Klebsiella pneumoniae [37]
  Activity: 66.7%
Klebsiella pneumoniae [38]
  Activity: Active
Klebsiella pneumoniae [9]
  MIC: 0.5 µg/mL (≈ 0.844 µM)
Acinetobacter baumannii [39]
  Activity: 84%
Cell membrane [40]
  Activity: Tde
Klebsiella pneumoniae [41]
  Activity: Active
Klebsiella pneumoniae [42]
  Activity: 36%
Cell membrane [43]
  Activity: Dde
Cell membrane [44]
  Activity: Active
Klebsiella pneumoniae [45]
  Activity: Active
Staphylococcus aureus [10]
  MIC: 2 µg/mL (≈ 3.38 µM)
Acinetobacter baumannii [46]
  Activity: Dde
Acinetobacter baumannii [47]
  Activity: 66.7%
Calf thymus DNA [48]
  Activity: Active
Acinetobacter baumannii [49]
  Activity: 58%
Staphylococcus aureus [12]
  MIC: 2 µg/mL (≈ 3.38 µM)
Calf thymus DNA [50]
  Activity: Active
Cell membrane [51]
  Activity: Tde
Acinetobacter baumannii [52]
  Activity: 30%
Klebsiella pneumoniae [53]
  Activity: 30%
